Test: xn = mol fraction of the nth substance listed

CC(=O)[O-].Cn1cc[nH+]c1 + O
Settings | electrical conductivity [S/m] | viscosity [mPa·s]
293.15 K, 101.3 kPa, x2 = 0.0705 | 0.905 | –
293.15 K, 101.3 kPa, x2 = 0.1339 | 1.176 | –
293.15 K, 101.3 kPa, x2 = 0.8407 | 8.771 | –
293.15 K, 101.3 kPa, x2 = 0.9035 | 6.875 | –
298.15 K, 101 kPa, x1 = 0.0051 | 1.17 | –
298.15 K, 101 kPa, x1 = 0.0151 | 2.49 | –
298.15 K, 101 kPa, x2 = 0.9502 | 3.87 | –
298.15 K, 101 kPa, x2 = 0.98 | 2.71 | –
303.15 K, 101 kPa, x2 = 0 | – | 5.91
313.15 K, 101 kPa, x2 = 0 | – | 4.395

[I-].[Li+] + CC[n+]1ccn(C)c1.O=S(=O)([O-])C(F)(F)F
electrical conductivity [S/m], 101 kPa
Settings | 288.15 K | 298.15 K | 333.15 K
x1 = 0.007746 | 0.575 | 0.843 | 2.22
x1 = 0.01537 | 0.548 | 0.817 | 2.15
x2 = 0.9746 | 0.556 | 0.827 | 2.17

CCCC[n+]1ccn(C)c1.O=[N+]([O-])[O-] + CCCCCO
100 kPa
Settings | viscosity [mPa·s]
293.15 K, x1 = 0.4363 | 18.2
293.15 K, x1 = 0.5668 | 29.3
293.15 K, x1 = 0.7481 | 61
313.15 K, x1 = 0.6481 | 18.9
313.15 K, x1 = 0.8416 | 38.7
313.15 K, x1 = 0.9415 | 57.5
323.15 K, x1 = 0.0824 | 2.22
323.15 K, x1 = 0.9415 | 35.5

C[NH+](C)C.O=S(=O)([N-]S(=O)(=O)C(F)(F)F)C(F)(F)F + CC#N
101 kPa
Settings | electrical conductivity [S/m]
298.15 K, x2 = 0.66 | 4.82
303.15 K, x2 = 0.86 | 6.87

CCOS(=O)(=O)[O-].CC[n+]1ccn(C)c1 + O=C([O-])CC(O)(CC(=O)[O-])C(=O)[O-].[K+].[K+].[K+] + O
viscosity [mPa·s], 101.3 kPa
Settings | 293.15 K | 298.15 K | 303.15 K | 308.15 K | 313.15 K
x2 = 0, x1 = 0.001795 | 1.073 | 0.96 | 0.845 | 0.751 | 0.679
x2 = 0, x1 = 0.002698 | 1.107 | 0.987 | 0.876 | 0.788 | 0.709
x2 = 0, x1 = 0.003589 | 1.136 | 1.016 | 0.899 | 0.811 | 0.727

CCCC[n+]1ccn(C)c1.O=[N+]([O-])[O-] + CCO
101 kPa
Settings | viscosity [mPa·s]
283.15 K, x2 = 0.447 | 35.48
288.15 K, x2 = 0.352 | 51.47
288.15 K, x2 = 0.663 | 9.58
288.15 K, x2 = 0.748 | 6.39
293.15 K, x2 = 0.254 | 67.9
293.15 K, x2 = 0.4 | 31.2
293.15 K, x2 = 0.748 | 5.61
298.15 K, x2 = 0 | 159
298.15 K, x2 = 0.11 | 105.5
298.15 K, x2 = 0.2 | 58.3
298.15 K, x2 = 0.663 | 7.62
298.15 K, x2 = 0.748 | 4.83
303.15 K, x2 = 0.447 | 16.15
303.15 K, x2 = 0.6 | 10.1
303.15 K, x2 = 0.852 | 2.46
308.15 K, x2 = 0.11 | 59.6
308.15 K, x2 = 0.2 | 38.6
308.15 K, x2 = 0.352 | 21.4
308.15 K, x2 = 0.663 | 5.77
313.15 K, x2 = 0.11 | 47.55
313.15 K, x2 = 0.2 | 32.1
313.15 K, x2 = 0.254 | 29.2
318.15 K, x2 = 0.2 | 26.9
318.15 K, x2 = 0.254 | 24.53
318.15 K, x2 = 0.4 | 14.2
318.15 K, x2 = 0.852 | 1.9
328.15 K, x2 = 0.447 | 7.87
333.15 K, x2 = 0.254 | 15.52

CC(=O)[O-].Cn1cc[nH+]c1 + CCO
293.15 K, 101.3 kPa
Settings | electrical conductivity [S/m]
x2 = 0 | 0.326
x2 = 0.9371 | 0.448

CC(=O)[O-].Cn1cc[nH+]c1 + COS(=O)(=O)[O-].Cn1cc[n+](C)c1
298.15 K, 100 kPa
Settings | viscosity [mPa·s]
x1 = 0.1 | 90.2
x1 = 0.19 | 77.2
x1 = 0.31 | 56.3
x1 = 0.4 | 40.7
x1 = 0.5 | 35.3
x1 = 0.59 | 27.7

NCCOCCO + CN1CCCC1=O + CCCC[n+]1ccn(C)c1.O=S(=O)([N-]S(=O)(=O)C(F)(F)F)C(F)(F)F
viscosity [mPa·s], 101 kPa
Settings | 293.15 K | 298.15 K | 303.15 K | 308.15 K | 313.15 K | 318.15 K | 323.15 K | 328.15 K | 333.15 K
x1 = 0.2949, x2 = 0.6792 | 5.359 | 4.682 | 4.146 | 3.69 | 3.316 | 3.017 | 2.747 | 2.523 | 2.335
x1 = 0.3615, x2 = 0.5637 | 8.078 | 6.927 | 6.008 | 5.26 | 4.651 | 4.139 | 3.714 | 3.359 | 3.062
x1 = 0.4113, x2 = 0.453 | 12.21 | 10.27 | 8.74 | 7.52 | 6.54 | 5.736 | 5.069 | 4.517 | 4.053

CCCCCCCC[n+]1ccccc1.O=S(=O)([N-]S(=O)(=O)C(F)(F)F)C(F)(F)F + CCCCOC(C)=O
Settings | electrical conductivity [S/m]
298.15 K, 100 kPa, x2 = 0.6824 | 0.371

[I-].[Li+] + CCCC[n+]1ccn(C)c1.N#C[N-]C#N
electrical conductivity [S/m], 101 kPa
Settings | x2 = 0.917 | x2 = 0.9294 | x2 = 0.9462 | x2 = 0.9628 | x2 = 0.9799
288.15 K | – | 0.389 | 0.465 | 0.506 | 0.569
298.15 K | 0.577 | 0.643 | 0.749 | 0.809 | 0.892
333.15 K | 1.92 | 2.04 | 2.28 | 2.33 | 2.56

COCCCC[n+]1ccn(C)c1.C[C@@H](O)[C@H](N)C(=O)[O-] + CS(C)=O
viscosity [mPa·s], 100 kPa
Settings | x1 = 0.0999 | x1 = 0.2013 | x1 = 0.3006 | x1 = 0.3966 | x1 = 0.5 | x1 = 0.6011 | x1 = 0.7007 | x1 = 0.8001 | x1 = 0.8946 | x1 = 1
288.15 K | 14.24 | 22.21 | 49.3 | 102.2 | 186.6 | 281 | 390 | 560 | 778 | 1030
293.15 K | 12.05 | 18.12 | 37.45 | 74.9 | 132.1 | 192 | 264 | 371 | 503 | 647
298.15 K | 9.53 | 15.09 | 30.16 | 56.54 | 94.4 | 135.2 | 181.5 | 254 | 340 | 424
303.15 K | 7.91 | 12.7 | 24.02 | 43.12 | 69.4 | 97.9 | 131.7 | 179.9 | 234 | 290
308.15 K | 6.67 | 10.74 | 19.82 | 33.94 | 52.97 | 74.4 | 98.5 | 133 | 168.7 | 205
313.15 K | 5.86 | 9.49 | 16.58 | 27.18 | 39.95 | 53.5 | 69.5 | 90.7 | 108.9 | 132.9
318.15 K | 5.2 | 8.31 | 13.95 | 21.6 | 31.33 | 41.63 | 53.64 | 69.5 | 80.3 | 98.5

CC[N+]1(C)CCCC1.COP(=O)([O-])OC + CCO
100 kPa
Settings | viscosity [mPa·s]
293.15 K, x1 = 0.0534 | 2.2
293.15 K, x1 = 0.1535 | 5.03
298.15 K, x1 = 0.1535 | 4.5
298.15 K, x1 = 0.306 | 11.71
303.15 K, x1 = 0.1535 | 4.05
303.15 K, x1 = 1 | 123.5
308.15 K, x1 = 0.5052 | 20.8
308.15 K, x1 = 0.6938 | 40.6
308.15 K, x1 = 1 | 93.5
318.15 K, x1 = 0.1054 | 2.13
323.15 K, x1 = 0.0534 | 1.37
323.15 K, x1 = 0.1535 | 2.82
323.15 K, x1 = 0.2015 | 3.64
323.15 K, x1 = 0.6938 | 22.8
323.15 K, x1 = 0.8049 | 30.6
328.15 K, x1 = 0.1054 | 1.84
328.15 K, x1 = 0.2015 | 3.34
328.15 K, x1 = 0.6022 | 14.74
328.15 K, x1 = 0.8049 | 24.8
333.15 K, x1 = 0.2015 | 3.05
338.15 K, x1 = 0.0534 | 1.1
338.15 K, x1 = 0.9073 | 20.5
338.15 K, x1 = 1 | 24

From the CheMixHub ionic liquid set
